In PubChem BioAssay (NCI):
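Each compound was tested at five concentrations against cells in 96-well plates for 48 hours. GI50 marks 50% less growth. Definition used: TGI = concentration required for complete inhibition of growth.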

Columns and labels:
Assay in all cases: DTP human tumour cell line panel, 48 h
[1] = tested on: BT-549 breast
[2] = tested on: COLO 205 colon
[3] = tested on: EKVX NSCLC
[4] = tested on: K-562 leukemia
[5] = tested on: MALME-3M melanoma
[6] = tested on: MDA-MB-231 breast
[7] = tested on: MDA-MB-435
[8] = tested on: MOLT-4 leukemia
[9] = tested on: SF-295 CNS
[10] = tested on: SR leukemia

| SMILES | GI50 [1] | TGI [1] | GI50 [2] | TGI [2] | GI50 [3] | TGI [3] | GI50 [4] | TGI [4] | GI50 [5] | TGI [5] | GI50 [6] | TGI [6] | GI50 [7] | TGI [7] | GI50 [8] | TGI [8] | GI50 [9] | TGI [9] | GI50 [10] | TGI [10] |
| --- | --- | --- | --- | --- | --- | --- | --- | --- | --- | --- | --- | --- | --- | --- | --- | --- | --- | --- | --- | --- |
| COc1ccc(/C=C\[N+](=O)[O-])cc1OC | 2.26 µM | 5.21 µM | 5.1 µM | 18 µM | 15.6 µM | 38.1 µM | 2.36 µM | > 100 µM | 22.6 µM | 43.5 µM | 3.73 µM | 13.1 µM | 2.46 µM | 9.38 µM | 4.1 µM | 38 µM | 12.2 µM | 33.9 µM | 2.38 µM | 7.99 µM |
| CCCCC#CC1=C(Br)C(=O)OC1 | 1.8 µM | 5.91 µM | 2.66 µM | > 22.2 µM | 3.79 µM | 10.7 µM | 0.279 µM | > 100 µM | 1.73 µM | 4.13 µM | 1.78 µM | 4.03 µM | 2.17 µM | 5.54 µM | 0.319 µM | > 100 µM | 6.2 µM | 28.2 µM | 0.36 µM | > 100 µM |
| Nc1nn2cc(F)cnc2c1C(=O)Nc1cncc(F)c1N1CCC(C(=O)N2CCN(C3COC3)CC2)CC1 | 0.246 µM | 1.55 µM | 0.575 µM | > 100 µM | 0.512 µM | > 100 µM | 0.281 µM | 2.74 µM | 0.608 µM | 12 µM | 1.93 µM | 6.37 µM | 0.266 µM | 2.54 µM | 0.0712 µM | 0.762 µM | 0.238 µM | 1.86 µM | 0.0619 µM | 0.894 µM |
| COc1cccc(CC(C)=C(c2ccc(OCCN(C)C)cc2)c2ccc(OCCN(C)C)cc2)c1 | 4.29 µM | 8.88 µM | 0.626 µM | 1.31 µM | 4.09 µM | 8.52 µM | 0.614 µM | 1.77 µM | 0.564 µM | 1.05 µM | 1.1 µM | 4.69 µM | 0.682 µM | 1.37 µM | 0.834 µM | 2.39 µM | 4.07 µM | 8.62 µM | 0.787 µM | 2.22 µM |
| Cn1c(I)c(C#CCO[Si](C)(C)C(C)(C)C)c(=O)[nH]c1=O | 16.4 µM | 30.3 µM | 6.41 µM | 20 µM | 17.5 µM | 32.8 µM | 2.06 µM | 4.36 µM | 1.78 µM | 3.85 µM | 17.3 µM | 33.1 µM | 13.9 µM | 27.8 µM | 1.82 µM | 4.32 µM | > 100 µM | > 100 µM | 1.53 µM | 3.6 µM |
| CCN1CCN(C(=O)[C@@]2(C)CC[C@]3(C)CC[C@]4(C)C(=CC(=O)[C@@H]5[C@@]6(C)CC[C@H](OC7C[C@@H](O)[C@@H](O)C(C)O7)C(C)(C)[C@@H]6CC[C@]54C)[C@@H]3C2)CC1 (stereo not given in full) | 5.84 µM | 13 µM | 9.13 µM | 20.6 µM | 3.51 µM | 10.4 µM | 1.08 µM | 2.66 µM | 0.917 µM | 2.05 µM | 1.13 µM | 2.59 µM | 2.26 µM | 8.19 µM | 1.18 µM | 3 µM | 0.934 µM | 1.83 µM | 1.06 µM | 2.57 µM |
| COc1ccccc1/C=N\N/C(N)=N\N=C\c1ccccc1OC | 0.785 µM | 3.56 µM | 0.232 µM | 0.631 µM | 0.574 µM | 14.3 µM | 0.263 µM | 1.7 µM | 0.237 µM | 5.2 µM | 2.58 µM | > 60.3 µM | 0.0235 µM | 0.0824 µM | 0.355 µM | 3.9 µM | < 0.0478 µM | 0.163 µM | 0.0319 µM | 0.74 µM |
| COc1cc(-c2oc(=O)ccc2C#Cc2ccccn2)cc(OC)c1OC | 4.42 µM | > 100 µM | 3.72 µM | > 30.9 µM | 8.07 µM | > 100 µM | 0.646 µM | > 100 µM | 14.9 µM | > 100 µM | 3.57 µM | > 72.4 µM | 0.171 µM | 0.932 µM | 4.14 µM | > 100 µM | 0.224 µM | 2.01 µM | 0.257 µM | > 39.9 µM |
| CSc1nc(=O)n(CCC#N)nc1SC |  | 55.1 µM |  | 52.8 µM |  | > 100 µM |  | 71.1 µM |  | 48.6 µM |  | > 100 µM |  | > 100 µM |  | 67.6 µM |  | > 100 µM |  | > 100 µM |
| O=C(O)c1nnsc1-c1ccc(-c2snnc2C(=O)O)cc1 |  | > 100 µM |  | > 100 µM |  | > 100 µM |  | 98.3 µM |  | > 100 µM |  | > 100 µM |  | > 100 µM |  | 51.4 µM |  | > 100 µM |  | > 100 µM |
